Source: US20060034889A1, “Biodegradable diblock copolymers having reverse thermal gelation properties and methods of use thereof” (MacroMed, Inc., priority 2004, published 2006)

Conditions: 30% by weight aqueous PLG-PEG diblock copolymer solutions or gels, 120 days, 5 °C and 37 °C

For `CC(=O)O[C@H]1C(=O)[C@@]2(C)[C@H]([C@H](OC(=O)c3ccccc3)[C@]3(O)C[C@H](OC(=O)[C@H](O)[C@@H](NC(=O)c4ccccc4)c4ccccc4)C(C)=C1C3(C)C)[C@]1(OC(C)=O)CO[C@@H]1C[C@@H]2O` [paclitaxel], the “drug intact after storage” value was “greater than 85%”.
